What was measured:
crabgrass [1] = assay: Test A pre-/postemergence greenhouse test; format: in vivo, Digitaria sanguinalis; settings: for Crabgrass, Large plant response rating: 0 to 100 scale; for Plant response rating, Crabgrass, Large: 0 to 100 scale where 0 is no effect and 100 is complete control
Method in brief: (§1)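 Test compounds in non-phytotoxic solvent with surfactant were applied as a preemergence soil spray to seeded loam/sand pots and, concurrently, postemergence to plants at 2–10 cm, one- to two-leaf stage. About ten days in greenhouse, then injury visually rated against untreated controls.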

umbrella sedge = assay: Test C flooded paddy test; format: in vivo, Cyperus difformis; settings: Flood
Method in brief: (§2)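 Test compounds are applied straight into paddy water held 3 cm above the soil surface, with that flood maintained for the whole test. After 13 to 15 days in the greenhouse, each species is scored visually relative to controls.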

Goosegrass = assay: Test C pre-/postemergence test; format: in vivo, Eleusin indica; settings: for Plant response rating, Goosegrass: 31 g ai/ha, scale 0 to 100 (0 no effect, 100 complete control)
Method in brief: (§3)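 Compounds in a non-phytotoxic solvent with surfactant applied preemergence to seeded pots and, at the same time, postemergence to plants 2–18 cm tall (1- to 4-leaf stage). Paddy tests: pots flooded to 3 cm, compound applied into the water, depth held throughout.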

lambsquarters = assay: Test C pre-/postemergence test; format: in vivo, Chenopodium album; settings: for Plant response rating, Lambsquarters: 31 g ai/ha, scale 0 to 100 (0 no effect, 100 complete control)
Method in brief: as §3

cocklebur = assay: Test C pre-/postemergence test; format: in vivo, Xanthium strumarium; settings: for Plant response rating, Cocklebur: 31 g ai/ha, scale 0 to 100 (0 no effect, 100 complete control)
Method in brief: as §3

bermudagrass = assay: Test C pre-/postemergence test; format: in vivo, Cynodon dactylon; settings: for Plant response rating, Bermudagrass: 31 g ai/ha
Method in brief: as §3

[2] = tested on: common (oilseed) sunflower; assay: Test C pre-/postemergence test; format: in vivo, Helianthus annuus; settings: for Plant response rating, Sunflower: 31 g ai/ha, scale 0 to 100 (0 no effect, 100 complete control)
Method in brief: as §3

kochia = assay: Test C pre-/postemergence test; format: in vivo, Kochia scoparia; settings: for Plant response rating, Kochia: 31 g ai/ha, scale 0 to 100 (0 no effect, 100 complete control)
Method in brief: as §3

morningglory = assay: Test A pre-/postemergence greenhouse test; format: in vivo, Ipomoea spp.; settings: for Morningglory plant response rating: 0 to 100 scale; for Plant response rating, Morningglory: 0 to 100 scale where 0 is no effect and 100 is complete control
Method in brief: as §1

Surinam grass = assay: Test C pre-/postemergence test; format: in vivo, Brachiaria decumbens; settings: for Plant response rating, Surinam Grass: 31 g ai/ha, scale 0 to 100 (0 no effect, 100 complete control)
Method in brief: as §3

barnyardgrass [3] = assay: Test C flooded paddy test; format: in vivo, Echinochloa crus-galli; settings: Flood
Method in brief: as §2

Italian ryegrass = assay: Test C pre-/postemergence test; format: in vivo, Lolium multiflorum
Method in brief: as §3

soybean = assay: Test C pre-/postemergence test; format: in vivo, Glycine max; settings: for Plant response rating, Soybean: 31 g ai/ha, scale 0 to 100 (0 no effect, 100 complete control)
Method in brief: as §3

crabgrass [4] = assay: Test C pre-/postemergence test; format: in vivo, Digitaria sanguinalis; settings: for Plant response rating, Crabgrass, Large: 31 g ai/ha, scale 0 to 100 (0 no effect, 100 complete control)
Method in brief: as §3

giant foxtail = assay: Test A pre-/postemergence greenhouse test; format: in vivo, Setaria faberi; settings: for Foxtail, Giant plant response rating: 0 to 100 scale; for Plant response rating, Foxtail, Giant: 0 to 100 scale where 0 is no effect and 100 is complete control
Method in brief: as §1

pigweed = assay: Test C pre-/postemergence test; format: in vivo, Amaranthus retroflexus; settings: for Plant response rating, Pigweed: 31 g ai/ha, scale 0 to 100 (0 no effect, 100 complete control)
Method in brief: as §3

barnyardgrass [5] = assay: Test A pre-/postemergence greenhouse test; format: in vivo, Echinochloa crus-galli; settings: for Barnyardgrass plant response rating: 0 to 100 scale; for Plant response rating, Barnyardgrass: 0 to 100 scale where 0 is no effect and 100 is complete control
Method in brief: as §1

[6] = Postemergence, 125 g ai/ha, 0 is no effect, 100 is complete control
[7] = Postemergence, 500 g ai/ha, 0 is no effect, 100 is complete control
[8] = Preemergence, 125 g ai/ha, 0 no effect, 100 complete control
[9] = 31 g ai/ha, scale 0 to 100 (0 no effect, 100 complete control)
[10] = 62 g ai/ha, scale 0 to 100, 0 no effect, 100 complete control, 13 to 15 days
[11] = 125 g ai/ha, scale 0 to 100, 0 no effect, 100 complete control, 13 to 15 days
[12] = 250 g ai/ha, scale 0 to 100, 0 no effect, 100 complete control, 13 to 15 days
[13] = 62 g ai/ha, Preemergence, scale 0 to 100
[14] = 125 g ai/ha, preemergence, scale 0 (no effect) to 100 (complete control)
[15] = preemergence, 250 g ai/ha, scale 0 (no effect) to 100 (complete control)
[16] = 62 g ai/ha, Preemergence, scale 0 to 100 (0 no effect, 100 complete control)
[17] = Preemergence, scale 0 to 100 (0 no effect, 100 complete control)
[18] = Preemergence, 500 g ai/ha, 0 no effect, 100 complete control
[19] = 62 g ai/ha, scale 0 to 100 (0 no effect, 100 complete control)

## Cn1nc(C(F)(F)F)c(C[S+]([O-])c2cc(F)cc[n+]2[O-])c1Cl (racemic) [Compound 42]
Crabgrass [1]; [6]
  Crabgrass, Large plant response rating: 80
Crabgrass [1]; [7]
  Crabgrass, Large plant response rating: 90
Crabgrass [1]; [8]
  Crabgrass, Large plant response rating: 70
Crabgrass [1]; Preemergence, 500 g ai/ha
  Plant response rating, Crabgrass, Large: 100
Umbrella sedge; [9]
  Plant response rating, Sedge, Umbrella: 80
Umbrella sedge; [10]
  Plant response rating, Sedge, Umbrella: 85
Umbrella sedge; [11]
  Plant response rating, Sedge, Umbrella: 90
Umbrella sedge; [12]
  Plant response rating, Sedge, Umbrella: 95
Goosegrass; [13]
  Goosegrass plant response rating: 100
Goosegrass; [14]
  Goosegrass plant response rating: 100
Goosegrass; Preemergence
  Plant response rating, Goosegrass: 85
Goosegrass; [15]
  Goosegrass plant response rating: 100
lambsquarters; [13]
  Lambsquarters plant response rating: 100
lambsquarters; [14]
  Lambsquarters plant response rating: 100
lambsquarters; Preemergence
  Plant response rating, Lambsquarters: 80
lambsquarters; [15]
  Lambsquarters plant response rating: 100
cocklebur; [13]
  Cocklebur plant response rating: 0
cocklebur; [14]
  Cocklebur plant response rating: 0
cocklebur; Preemergence
  Plant response rating, Cocklebur: 0
cocklebur; [15]
  Cocklebur plant response rating: 50
bermudagrass; [16]
  Bermudagrass plant response rating: 100
bermudagrass; [14]
  Bermudagrass plant response rating: 100
bermudagrass; [17]
  Plant response rating, Bermudagrass: 70
bermudagrass; [15]
  Bermudagrass plant response rating: 100
[2]; [13]
  Sunflower plant response rating: 0
[2]; [14]
  Sunflower plant response rating: 30
[2]; Preemergence
  Plant response rating, Sunflower: 0
[2]; [15]
  Sunflower plant response rating: 80
kochia; [13]
  Kochia plant response rating: 100
kochia; [14]
  Kochia plant response rating: 100
kochia; Preemergence
  Plant response rating, Kochia: 100
kochia; [15]
  Kochia plant response rating: 100
morningglory; [6]
  Morningglory plant response rating: 40
morningglory; [7]
  Morningglory plant response rating: 90
morningglory; [8]
  Morningglory plant response rating: 30
morningglory; Preemergence, 500 g ai/ha
  Plant response rating, Morningglory: 90
Surinam grass; [13]
  Surinam Grass plant response rating: 80
Surinam grass; [14]
  Surinam Grass plant response rating: 85
Surinam grass; Preemergence
  Plant response rating, Surinam Grass: 60
Surinam grass; [15]
  Surinam Grass plant response rating: 100
Barnyardgrass [3]; [9]
  Plant response rating, Barnyardgrass: 0
Barnyardgrass [3]; [10]
  Plant response rating, Barnyardgrass: 0
Barnyardgrass [3]; [11]
  Plant response rating, Barnyardgrass: 40
Barnyardgrass [3]; [12]
  Plant response rating, Barnyardgrass: 55
Italian ryegrass; [13]
  Ryegrass, Italian plant response rating: 55
Italian ryegrass; [14]
  Ryegrass, Italian plant response rating: 80
Italian ryegrass; [15]
  Ryegrass, Italian plant response rating: 85
soybean; [13]
  Soybean plant response rating: 0
soybean; [14]
  Soybean plant response rating: 40
soybean; Preemergence
  Plant response rating, Soybean: 0
soybean; [15]
  Soybean plant response rating: 40
Crabgrass [4]; [13]
  Crabgrass, Large plant response rating: 100
Crabgrass [4]; [14]
  Crabgrass, Large plant response rating: 100
Crabgrass [4]; Preemergence
  Plant response rating, Crabgrass, Large: 95
Crabgrass [4]; [15]
  Crabgrass, Large plant response rating: 100
Giant foxtail; [6]
  Foxtail, Giant plant response rating: 80
Giant foxtail; [7]
  Foxtail, Giant plant response rating: 90
Giant foxtail; [8]
  Foxtail, Giant plant response rating: 100
Giant foxtail; Preemergence, 500 g ai/ha
  Plant response rating, Foxtail, Giant: 100
pigweed; [13]
  Pigweed plant response rating: 100
pigweed; [14]
  Pigweed plant response rating: 100
pigweed; Preemergence
  Plant response rating, Pigweed: 100
pigweed; [15]
  Pigweed plant response rating: 100
Barnyardgrass [5]; [6]
  Barnyardgrass plant response rating: 70
Barnyardgrass [5]; [7]
  Barnyardgrass plant response rating: 80
Barnyardgrass [5]; [8]
  Barnyardgrass plant response rating: 80
Barnyardgrass [5]; Preemergence, 500 g ai/ha
  Plant response rating, Barnyardgrass: 100

## CC(C)c1cc[n+]([O-])c([S+]([O-])Cc2c(C(F)(F)F)nn(C)c2OC(F)F)c1 (stereo not drawn) [Compound 109]
Crabgrass [1]; Postemergence, 125 g ai/ha
  Plant response rating, Crabgrass, Large: 60
Crabgrass [1]; [7]
  Crabgrass, Large plant response rating: 90
Crabgrass [1]; [8]
  Crabgrass, Large plant response rating: 90
Crabgrass [1]; [18]
  Crabgrass, Large plant response rating: 100
Umbrella sedge; [9]
  Plant response rating, Sedge, Umbrella: 0
Umbrella sedge; [19]
  Plant response rating, Sedge, Umbrella: 0
Umbrella sedge; [11]
  Plant response rating, Sedge, Umbrella: 50
Umbrella sedge; [12]
  Plant response rating, Sedge, Umbrella: 75
Goosegrass; [13]
  Goosegrass plant response rating: 100
Goosegrass; [14]
  Goosegrass plant response rating: 100
Goosegrass; Preemergence
  Plant response rating, Goosegrass: 100
Goosegrass; [15]
  Goosegrass plant response rating: 100
lambsquarters; [13]
  Lambsquarters plant response rating: 100
lambsquarters; [14]
  Lambsquarters plant response rating: 100
lambsquarters; Preemergence
  Plant response rating, Lambsquarters: 100
lambsquarters; [15]
  Lambsquarters plant response rating: 100
cocklebur; [13]
  Cocklebur plant response rating: 0
cocklebur; [14]
  Cocklebur plant response rating: 0
cocklebur; Preemergence
  Plant response rating, Cocklebur: 0
cocklebur; [15]
  Cocklebur plant response rating: 60
bermudagrass; [16]
  Bermudagrass plant response rating: 100
bermudagrass; [14]
  Bermudagrass plant response rating: 100
bermudagrass; [17]
  Plant response rating, Bermudagrass: 95
bermudagrass; [15]
  Bermudagrass plant response rating: 100
[2]; [13]
  Sunflower plant response rating: 50
[2]; [14]
  Sunflower plant response rating: 55
[2]; Preemergence
  Plant response rating, Sunflower: 50
[2]; [15]
  Sunflower plant response rating: 75
kochia; [13]
  Kochia plant response rating: 90
kochia; [14]
  Kochia plant response rating: 100
kochia; Preemergence
  Plant response rating, Kochia: 80
kochia; [15]
  Kochia plant response rating: 100
morningglory; Postemergence, 125 g ai/ha
  Plant response rating, Morningglory: 60
morningglory; [7]
  Morningglory plant response rating: 90
morningglory; [8]
  Morningglory plant response rating: 60
morningglory; [18]
  Morningglory plant response rating: 100
Surinam grass; [13]
  Surinam Grass plant response rating: 95
Surinam grass; [14]
  Surinam Grass plant response rating: 100
Surinam grass; Preemergence
  Plant response rating, Surinam Grass: 50
Surinam grass; [15]
  Surinam Grass plant response rating: 100
Barnyardgrass [3]; [9]
  Plant response rating, Barnyardgrass: 0
Barnyardgrass [3]; [19]
  Plant response rating, Barnyardgrass: 20
Barnyardgrass [3]; [11]
  Plant response rating, Barnyardgrass: 20
Barnyardgrass [3]; [12]
  Plant response rating, Barnyardgrass: 20
Italian ryegrass; [13]
  Ryegrass, Italian plant response rating: 0
Italian ryegrass; [14]
  Ryegrass, Italian plant response rating: 0
Italian ryegrass; Preemergence, 31 g ai/ha, scale 0 to 100 (0 no effect, 100 complete control)
  Plant response rating, Ryegrass, Italian: 0
Italian ryegrass; [15]
  Ryegrass, Italian plant response rating: 0
soybean; [13]
  Soybean plant response rating: 50
soybean; [14]
  Soybean plant response rating: 85
soybean; Preemergence
  Plant response rating, Soybean: 45
soybean; [15]
  Soybean plant response rating: 95
Crabgrass [4]; [13]
  Crabgrass, Large plant response rating: 100
Crabgrass [4]; [14]
  Crabgrass, Large plant response rating: 100
Crabgrass [4]; Preemergence
  Plant response rating, Crabgrass, Large: 80
Crabgrass [4]; [15]
  Crabgrass, Large plant response rating: 100
Giant foxtail; Postemergence, 125 g ai/ha
  Plant response rating, Foxtail, Giant: 80
Giant foxtail; [7]
  Foxtail, Giant plant response rating: 90
Giant foxtail; [8]
  Foxtail, Giant plant response rating: 90
Giant foxtail; [18]
  Foxtail, Giant plant response rating: 100
pigweed; [13]
  Pigweed plant response rating: 100
pigweed; [14]
  Pigweed plant response rating: 100
pigweed; Preemergence
  Plant response rating, Pigweed: 100
pigweed; [15]
  Pigweed plant response rating: 100
Barnyardgrass [5]; Postemergence, 125 g ai/ha
  Plant response rating, Barnyardgrass: 80
Barnyardgrass [5]; [7]
  Barnyardgrass plant response rating: 90
Barnyardgrass [5]; [8]
  Barnyardgrass plant response rating: 70
Barnyardgrass [5]; [18]
  Barnyardgrass plant response rating: 100

Source: US20100298141A1, “SUBSTITUTED PYRIDINE N-OXIDE HERBICIDES” (E. I. DU PONT DE NEMOURS AND COMPANY, priority 2007, published 2010)
